Measured values: article PMC9814781, “Structure-based design of a dual-warhead covalent inhibitor of FGFR4” (Communications Chemistry, 2022)
Like-named read-outs stand apart in the source and are kept apart here.

Experiments:
[1] = biological target: KHS (Homo sapiens, UniProt Q9Y4K4); assay: Kinase selectivity profiling
[2] = biological target: SGK (Homo sapiens, UniProt O00141); assay: Kinase selectivity profiling
[3] = biological target: KIT[D816V] (Homo sapiens, UniProt P10721, D816V); assay: Kinase selectivity profiling
[4] = biological target: CDK1/CycE1 (Homo sapiens, UniProt P06493); assay: Kinase selectivity profiling
[5] = biological target: PAK3 (Homo sapiens, UniProt O75914); assay: Kinase selectivity profiling
[6] = biological target: EPHB3 (Homo sapiens, UniProt P54753); assay: Kinase selectivity profiling
[7] = biological target: EPHA1 (Homo sapiens, UniProt P21709); assay: Kinase selectivity profiling
[8] = biological target: IKK-beta (Homo sapiens, UniProt O14920); assay: Kinase selectivity profiling
[9] = biological target: PKD2 (Homo sapiens, UniProt Q9BZL6); assay: Kinase selectivity profiling
[10] = biological target: PIM3 (Homo sapiens, UniProt Q86V86); assay: Kinase selectivity profiling
[11] = biological target: SYK (Homo sapiens, UniProt P43405); assay: Kinase selectivity profiling
[12] = biological target: ROCK1 (Homo sapiens, UniProt Q13464); assay: Kinase selectivity profiling
[13] = biological target: Her4(ERBB4) (Homo sapiens, UniProt Q15303); assay: Kinase selectivity profiling
[14] = biological target: Pkca (Homo sapiens, UniProt P17252); assay: Kinase selectivity profiling
[15] = biological target: CLK3 (Homo sapiens, UniProt P49761); assay: Kinase selectivity profiling
[16] = biological target: LYNa (Homo sapiens, UniProt P07948); assay: Kinase selectivity profiling
[17] = biological target: KDR (VEGFR2) (Homo sapiens, UniProt P35968); assay: Kinase selectivity profiling
[18] = biological target: TIE2 (Homo sapiens, UniProt Q02763); assay: Kinase selectivity profiling
[19] = biological target: p38β (Homo sapiens, UniProt Q15759); assay: Kinase selectivity profiling
[20] = biological target: HER2 (Homo sapiens, UniProt P04626); assay: Kinase selectivity profiling
[21] = biological target: CDK18/CycY (Homo sapiens, UniProt Q07002); assay: Kinase selectivity profiling
[22] = biological target: CK1ε (Homo sapiens, UniProt P49674); assay: Kinase selectivity profiling
[23] = biological target: FGFR1 (Homo sapiens, UniProt P11362); assay: Kinase selectivity profiling
[24] = biological target: PLK3 (Homo sapiens, UniProt Q9H4B4); assay: Kinase selectivity profiling
[25] = In vitro plasma stability study; assay type: in vitro ADME; conditions: for half-life at 2 µg/mL: 37°C, read-out: in vitro t1/2 (converted); for R squared / Slope: linear regression 0–10 h
Description: The incubation was terminated by the addition of 300 µL of acetonitrile containing 50 ng/mL roblitinib as internal standard. After vortex and centrifugation, the supernatant was analyzed using ultraperformance liquid chromatography-tandem mass spectrometry.

[26] = biological target: AXL (Homo sapiens, UniProt P30530); assay: Kinase selectivity profiling
[27] = biological target: EPHB2 (Homo sapiens, UniProt P29323); assay: Kinase selectivity profiling
[28] = biological target: FGR (Homo sapiens, UniProt P09769); assay: Kinase selectivity profiling
[29] = biological target: CHK1(CHEK1) (Homo sapiens, UniProt O14757); assay: Kinase selectivity profiling
[30] = biological target: CDK6/CycD1 (Homo sapiens, UniProt Q00534); assay: Kinase selectivity profiling
[31] = biological target: FAK (Homo sapiens, UniProt Q05397); assay: Kinase selectivity profiling
[32] = biological target: HGK (Homo sapiens, UniProt O95819); assay: Kinase selectivity profiling
[33] = biological target: BTK (Homo sapiens, UniProt Q06187); assay: Kinase selectivity profiling
[34] = biological target: NEK1 (Homo sapiens, UniProt Q96PY6); assay: Kinase selectivity profiling
[35] = biological target: CK2α2/β (Homo sapiens, UniProt P19784); assay: Kinase selectivity profiling
[36] = biological target: p38δ (Homo sapiens, UniProt O15264); assay: Kinase selectivity profiling
[37] = biological target: SGK2 (Homo sapiens, UniProt Q9HBY8); assay: Kinase selectivity profiling
[38] = biological target: MET (Homo sapiens, UniProt P08581); assay: Kinase selectivity profiling
[39] = biological target: ROCK2 (Homo sapiens, UniProt O75116); assay: Kinase selectivity profiling

Chain of ROCK1 (Q13464 whole entry): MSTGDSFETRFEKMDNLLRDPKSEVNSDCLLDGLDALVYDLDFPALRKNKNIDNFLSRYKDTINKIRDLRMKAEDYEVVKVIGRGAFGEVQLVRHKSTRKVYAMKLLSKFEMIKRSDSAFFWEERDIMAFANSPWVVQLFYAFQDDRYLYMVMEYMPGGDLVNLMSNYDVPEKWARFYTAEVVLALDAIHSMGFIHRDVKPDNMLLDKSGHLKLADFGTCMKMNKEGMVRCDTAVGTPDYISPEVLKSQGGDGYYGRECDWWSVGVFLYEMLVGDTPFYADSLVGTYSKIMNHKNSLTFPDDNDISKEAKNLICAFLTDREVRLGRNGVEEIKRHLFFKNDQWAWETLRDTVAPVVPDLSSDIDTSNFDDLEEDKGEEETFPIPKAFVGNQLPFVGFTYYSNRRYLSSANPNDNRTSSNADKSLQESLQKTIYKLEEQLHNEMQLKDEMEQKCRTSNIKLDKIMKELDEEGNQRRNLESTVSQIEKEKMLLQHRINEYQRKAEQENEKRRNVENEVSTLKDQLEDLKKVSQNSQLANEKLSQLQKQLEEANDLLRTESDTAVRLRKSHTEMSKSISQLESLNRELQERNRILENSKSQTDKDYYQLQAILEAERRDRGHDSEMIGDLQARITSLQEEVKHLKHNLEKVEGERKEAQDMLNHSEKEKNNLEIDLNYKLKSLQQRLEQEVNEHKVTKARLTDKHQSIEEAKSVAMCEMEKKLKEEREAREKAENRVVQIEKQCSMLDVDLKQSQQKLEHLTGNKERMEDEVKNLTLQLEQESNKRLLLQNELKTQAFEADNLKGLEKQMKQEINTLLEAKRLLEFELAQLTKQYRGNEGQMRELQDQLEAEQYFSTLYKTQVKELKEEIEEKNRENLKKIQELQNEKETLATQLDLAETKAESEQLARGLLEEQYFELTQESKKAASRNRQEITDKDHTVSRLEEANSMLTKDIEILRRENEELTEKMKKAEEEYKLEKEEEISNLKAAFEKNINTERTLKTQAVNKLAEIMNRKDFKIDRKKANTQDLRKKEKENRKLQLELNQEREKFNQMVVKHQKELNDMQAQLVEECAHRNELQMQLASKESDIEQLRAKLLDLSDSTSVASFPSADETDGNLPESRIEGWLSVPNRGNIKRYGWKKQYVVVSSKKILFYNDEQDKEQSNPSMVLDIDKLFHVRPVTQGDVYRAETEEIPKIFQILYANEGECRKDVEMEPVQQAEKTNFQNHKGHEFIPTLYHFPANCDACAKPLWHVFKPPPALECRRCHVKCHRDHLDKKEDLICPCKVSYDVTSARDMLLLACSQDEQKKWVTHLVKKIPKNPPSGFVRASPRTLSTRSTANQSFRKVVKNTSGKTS
Chain of CLK3 (P49761 whole entry): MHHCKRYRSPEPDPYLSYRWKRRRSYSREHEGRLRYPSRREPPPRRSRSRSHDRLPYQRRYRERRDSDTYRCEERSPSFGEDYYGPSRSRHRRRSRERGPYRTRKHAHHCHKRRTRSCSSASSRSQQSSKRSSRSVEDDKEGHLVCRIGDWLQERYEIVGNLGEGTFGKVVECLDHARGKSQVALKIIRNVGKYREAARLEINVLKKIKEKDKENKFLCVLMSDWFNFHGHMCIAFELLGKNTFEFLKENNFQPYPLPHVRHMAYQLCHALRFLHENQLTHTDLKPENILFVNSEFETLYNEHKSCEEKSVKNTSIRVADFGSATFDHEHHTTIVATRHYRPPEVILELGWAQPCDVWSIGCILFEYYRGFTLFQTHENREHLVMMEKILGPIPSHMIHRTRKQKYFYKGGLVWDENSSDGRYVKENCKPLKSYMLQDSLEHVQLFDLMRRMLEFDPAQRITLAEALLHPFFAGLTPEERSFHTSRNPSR
Chain of CK1ε (P49674 whole entry): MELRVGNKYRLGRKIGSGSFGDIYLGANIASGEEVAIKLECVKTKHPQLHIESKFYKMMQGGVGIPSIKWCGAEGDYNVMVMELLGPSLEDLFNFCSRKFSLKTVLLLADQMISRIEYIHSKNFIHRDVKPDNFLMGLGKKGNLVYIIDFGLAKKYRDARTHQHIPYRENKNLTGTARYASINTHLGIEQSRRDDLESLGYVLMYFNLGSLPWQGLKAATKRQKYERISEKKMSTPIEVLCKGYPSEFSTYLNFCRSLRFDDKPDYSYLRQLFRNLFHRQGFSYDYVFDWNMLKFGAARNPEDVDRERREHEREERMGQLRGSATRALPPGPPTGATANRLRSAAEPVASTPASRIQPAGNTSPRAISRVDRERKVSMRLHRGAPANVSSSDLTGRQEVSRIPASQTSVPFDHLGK
Chain of MET (P08581 25-1390): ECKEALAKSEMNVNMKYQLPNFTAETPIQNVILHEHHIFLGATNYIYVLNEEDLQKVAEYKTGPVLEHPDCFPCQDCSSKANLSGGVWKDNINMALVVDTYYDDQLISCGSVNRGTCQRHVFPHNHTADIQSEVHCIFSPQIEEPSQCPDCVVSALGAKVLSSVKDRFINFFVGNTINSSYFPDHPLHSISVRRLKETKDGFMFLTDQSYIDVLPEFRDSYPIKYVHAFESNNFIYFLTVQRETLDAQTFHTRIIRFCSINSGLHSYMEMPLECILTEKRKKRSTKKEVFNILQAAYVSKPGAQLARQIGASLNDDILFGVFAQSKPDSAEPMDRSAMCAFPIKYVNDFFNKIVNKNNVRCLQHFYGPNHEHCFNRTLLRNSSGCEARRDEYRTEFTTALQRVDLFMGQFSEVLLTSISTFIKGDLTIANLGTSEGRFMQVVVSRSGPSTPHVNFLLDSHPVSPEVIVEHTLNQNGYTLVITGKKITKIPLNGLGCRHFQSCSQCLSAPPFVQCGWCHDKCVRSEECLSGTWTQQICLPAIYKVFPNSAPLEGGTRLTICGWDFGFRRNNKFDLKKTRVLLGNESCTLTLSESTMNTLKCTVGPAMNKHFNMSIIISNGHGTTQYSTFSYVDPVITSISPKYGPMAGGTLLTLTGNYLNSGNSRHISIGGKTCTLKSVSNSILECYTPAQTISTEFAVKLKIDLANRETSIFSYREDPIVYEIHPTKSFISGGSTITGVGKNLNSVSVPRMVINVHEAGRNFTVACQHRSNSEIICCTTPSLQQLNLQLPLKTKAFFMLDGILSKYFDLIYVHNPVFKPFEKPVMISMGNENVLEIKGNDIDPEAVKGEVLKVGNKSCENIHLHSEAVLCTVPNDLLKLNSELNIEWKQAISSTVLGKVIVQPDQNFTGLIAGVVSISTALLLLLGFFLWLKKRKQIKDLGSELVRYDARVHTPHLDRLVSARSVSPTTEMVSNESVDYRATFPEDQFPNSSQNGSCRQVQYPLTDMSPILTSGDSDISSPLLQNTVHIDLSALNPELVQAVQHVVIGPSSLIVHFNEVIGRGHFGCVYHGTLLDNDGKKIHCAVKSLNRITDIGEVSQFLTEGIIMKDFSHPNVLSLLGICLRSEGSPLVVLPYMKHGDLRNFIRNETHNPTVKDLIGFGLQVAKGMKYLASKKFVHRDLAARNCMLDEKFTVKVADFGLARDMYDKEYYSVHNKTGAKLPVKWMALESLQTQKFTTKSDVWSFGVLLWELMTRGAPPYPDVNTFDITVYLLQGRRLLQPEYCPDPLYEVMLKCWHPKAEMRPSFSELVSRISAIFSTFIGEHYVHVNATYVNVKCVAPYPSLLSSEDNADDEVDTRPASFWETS
Chain of BTK (Q06187 whole entry): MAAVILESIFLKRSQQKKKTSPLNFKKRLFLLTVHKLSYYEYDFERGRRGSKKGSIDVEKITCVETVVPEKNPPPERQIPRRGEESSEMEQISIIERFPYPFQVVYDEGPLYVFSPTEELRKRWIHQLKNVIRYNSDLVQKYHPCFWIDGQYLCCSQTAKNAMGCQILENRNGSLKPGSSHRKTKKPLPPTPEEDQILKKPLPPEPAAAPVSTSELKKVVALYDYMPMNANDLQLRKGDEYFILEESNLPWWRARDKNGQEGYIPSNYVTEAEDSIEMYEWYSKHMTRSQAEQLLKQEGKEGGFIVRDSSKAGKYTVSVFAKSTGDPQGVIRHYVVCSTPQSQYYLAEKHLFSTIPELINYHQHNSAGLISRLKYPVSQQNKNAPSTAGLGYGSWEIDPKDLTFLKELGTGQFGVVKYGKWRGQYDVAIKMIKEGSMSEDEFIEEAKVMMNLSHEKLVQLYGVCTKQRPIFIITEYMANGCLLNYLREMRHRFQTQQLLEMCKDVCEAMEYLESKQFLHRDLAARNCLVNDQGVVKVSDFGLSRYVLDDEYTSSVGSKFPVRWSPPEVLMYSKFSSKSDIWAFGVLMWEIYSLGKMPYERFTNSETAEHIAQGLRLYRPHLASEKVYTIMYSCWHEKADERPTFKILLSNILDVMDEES

C=CC(=O)Nc1ccccc1Nc1ncc2c(n1)N(CCCN1CCN(C(=O)C=C)CC1)C(=O)N(c1cc(OC)cc(OC)c1)C2 [CXF-009]
inhibition at 1 µM [1]: 4.11%
inhibition at 1 µM [2]: 2.9%
inhibition at 1 µM [3]: -6.19%
inhibition at 1 µM [4]: -7.18%
inhibition at 1 µM [5]: 0.97%
inhibition at 1 µM [6]: -0.82%
inhibition at 1 µM [7]: 2.15%
inhibition at 1 µM [8]: 19%
inhibition at 1 µM [9]: 0.08%
inhibition at 1 µM [10]: 17.5%
inhibition at 1 µM [11]: 13.6%
inhibition at 1 µM [12]: 5.09%
inhibition at 1 µM [13]: 0.69%
inhibition at 1 µM [14]: 1.73%
inhibition at 1 µM [15]: -0.52%
inhibition at 1 µM [16]: -2.53%
inhibition at 1 µM [17]: -5.37%
inhibition at 1 µM [18]: -12.8%
inhibition at 1 µM [19]: 2.25%
inhibition at 1 µM [20]: 10.7%
inhibition at 1 µM [21]: -3.74%
inhibition at 1 µM [22]: -4.6%
inhibition at 1 µM [23]: 4.98%
inhibition at 1 µM [24]: -1.12%
half-life at 2 µg/mL ([25]; human plasma): 3.73 h
R squared ([25]; human plasma): 0.9969
Slope ([25]; human plasma): −0.1859
half-life at 2 µg/mL ([25]; rat plasma): 4.99 h
R squared ([25]; rat plasma): 0.9935
Slope ([25]; rat plasma): −0.1388
inhibition at 1 µM [26]: -7.53%
inhibition at 1 µM [27]: -3.12%
inhibition at 1 µM [28]: -1.1%
inhibition at 1 µM [29]: 1.53%
inhibition at 1 µM [30]: -9.58%
inhibition at 1 µM [31]: -0.41%
inhibition at 1 µM [32]: 2.58%
inhibition at 1 µM [33]: -5.76%
inhibition at 1 µM [34]: 1.39%
inhibition at 1 µM [35]: -7.98%
inhibition at 1 µM [36]: 13.9%
inhibition at 1 µM [37]: 0.51%
inhibition at 1 µM [38]: 2.65%
inhibition at 1 µM [39]: -2.53%
